Experimental findings from ChEMBL document CHEMBL5113472, “Structure-activity relationship studies of [1,2,5]oxadiazolo[3,4-b]pyrazine-containing polymyxin-selective resistance-modifying agents” (Bioorg Med Chem Lett, 2022) are described below.

≈ marks a conversion by molar mass, not a printed value.

Series [1] has as its system Salmonella typhimurium. Kind of series: Antibacterial activity against Salmonella Typhimurium AR0635 harboring mcr-4 plasmid assessed as inhibition of bacterial growth. It is filed as functional, organism-based. The settings on record: Salmonella enterica subsp. enterica serovar Typhimurium.
For series [2], the system named is Klebsiella pneumoniae. Nature of the series: Antibacterial activity against Klebsiella pneumoniae AR0497 harboring mcr-1 plasmid assessed as inhibition of bacterial growth. The series is classed as functional, organism-based.
For series [3], the system named is Pseudomonas aeruginosa. Nature of the series: Antibacterial activity against Pseudomonas aeruginosa AR0239 assessed as inhibition of bacterial growth. It is filed as functional, organism-based.
Series [4] concerns Escherichia coli. Kind of series: Antibacterial activity against Escherichia coli AR0538 harboring mcr-2 plasmid assessed as inhibition of bacterial growth. The series is classed as functional, organism-based.
Series [5] relates to Acinetobacter baumannii. Kind of series: Antibacterial activity against Acinetobacter baumannii AR0310 assessed as inhibition of bacterial growth. The series is classed as functional, organism-based.
Series [6] deals with Pseudomonas aeruginosa. Nature of the series: Antibacterial activity against Pseudomonas aeruginosa AR0257 assessed as inhibition of bacterial growth. It is filed as functional, organism-based.
Series [7] concerns Escherichia coli. Kind of series: Antibacterial activity against Escherichia coli AR0493 harboring mcr-1 plasmid assessed as inhibition of bacterial growth. It is filed as functional.
Series [8] concerns Salmonella typhimurium. Kind of series: Antibacterial activity against Salmonella Typhimurium AR0539 harboring mcr-3 plasmid assessed as inhibition of bacterial growth. It is filed as functional, organism-based. The note with it: Salmonella enterica subsp. enterica serovar Typhimurium.
Series [9] in a line: Cytotoxicity against human HeLa cells assessed as inhibition of cell growth by cell viability assay. The series is classed as toxicity, cell-based.
A short description of series [10]: Selectivity index, ratio of GI50 for cytotoxicity against human HeLa cells to MRC for Potentiation of colistin-induced antibacterial activity against Escherichia coli AR0493 harboring mcr-1 plasmid. The note with it: read-out: Selectivity Index. It is filed as toxicity, cell-based.
Series [11] concerns Escherichia coli. Nature of the series: Potentiation of colistin-induced antibacterial activity against Escherichia coli AR0493 harboring mcr-1 plasmid assessed as minimum resensitizing concentration. It is filed as functional.
The subject of series [12] is Pseudomonas aeruginosa. Kind of series: Potentiation of colistin-induced antibacterial activity against Pseudomonas aeruginosa AR0257 assessed as colistin MIC at 1 ug/ml. The settings on record: dose 1 µg/ml. It is filed as functional.
Series [13] concerns Acinetobacter baumannii. Nature of the series: Potentiation of colistin-induced antibacterial activity against Acinetobacter baumannii AR0310 assessed as colistin MIC at 1 ug/ml. The series is classed as functional. The settings on record: dose 1 µg/ml.
The subject of series [14] is Klebsiella pneumoniae. Nature of the series: Potentiation of colistin-induced antibacterial activity against Klebsiella pneumoniae AR0497 harboring mcr-1 plasmid assessed as colistin MIC at 1 ug/ml. The series is classed as functional. The settings on record: dose 1 µg/ml.
In series [15] the test system is Escherichia coli. Kind of series: Potentiation of colistin-induced antibacterial activity against Escherichia coli AR0493 harboring mcr-1 plasmid assessed as colistin MIC at 1 ug/ml. It is filed as functional. The note with it: dose 1 µg/ml.
Series [16] concerns Salmonella typhimurium. Nature of the series: Potentiation of colistin-induced antibacterial activity against Salmonella Typhimurium AR0539 harboring mcr-3 plasmid assessed as colistin MIC at 1 ug/ml. The note with it: Salmonella enterica, dose 1 µg/ml. The series is classed as functional, Salmonella enterica subsp. enterica serovar Typhimurium.
Series [17] concerns Salmonella typhimurium. Kind of series: Potentiation of colistin-induced antibacterial activity against Salmonella Typhimurium AR0635 harboring mcr-4 plasmid assessed as colistin MIC at 1 ug/ml. The note with it: Salmonella enterica, dose 1 µg/ml. It is filed as functional, Salmonella enterica subsp. enterica serovar Typhimurium.
The test system of series [18] is Escherichia coli. Kind of series: Potentiation of colistin-induced antibacterial activity against Escherichia coli AR0538 harboring mcr-2 plasmid assessed as colistin MIC at 1 ug/ml. The note with it: dose 1 µg/ml. It is filed as functional.
For series [19], the system named is Pseudomonas aeruginosa. Kind of series: Potentiation of colistin-induced antibacterial activity against Pseudomonas aeruginosa AR0239 assessed as colistin MIC at 1 ug/ml. The series is classed as functional. The settings on record: dose 1 µg/ml.

What is called MIC is the lowest concentration found to suppress growth. Consider COLISTIN, for which the MIC was 32 µg/mL in the series with Salmonella typhimurium [1]; 8 µg/mL in the series with Klebsiella pneumoniae [2]; 4 µg/mL with Pseudomonas aeruginosa [3]; 8 µg/mL in the series with Escherichia coli [4]; 32 µg/mL in the series on Acinetobacter baumannii [5]; 8 µg/mL with Pseudomonas aeruginosa [6]. Moreover, the minimal inhibitory concentration (MIC) in the series on Escherichia coli [7] and in the series with Salmonella typhimurium [8] was 8 µg/mL in each case.

As usually defined, the GI50 is the concentration that inhibits growth by half. Regarding `Cc1cccc(Nc2nc3nonc3nc2Nc2cccc(C)c2)c1`, the GI50 in series [9] stood at 15 µg/mL (≈ 45.1 µM). In addition, the selectivity ratio in series [10] amounted to 30. Further, the MRC in the series on Escherichia coli [11] worked out at 0.5 µg/mL. For the same molecule, the MIC in the series on Escherichia coli [7] is > 64 µg/mL.

As for `Cc1ccccc1Nc1nc2nonc2nc1Nc1ccccc1C`, in the series with Escherichia coli [11], the MRC was 8 µg/mL.

For `COc1ccccc1Nc1nc2nonc2nc1Nc1ccccc1OC`, the MRC with Escherichia coli [11] is >64 µg/mL.

In the case of `FC(F)(F)Oc1cccc(Nc2nc3nonc3nc2Nc2ccccc2)c1`, the MRC in the series with Escherichia coli [11] is 1 µg/mL.

On to `Cc1ccccc1Nc1nc2nonc2nc1O`, for which, in the series on Escherichia coli [11], the MRC turned out to be 64 µg/mL.

`Oc1nc2nonc2nc1Nc1cccc(OC(F)(F)F)c1`: the GI50 in series [9] amounted to 24 µg/mL (≈ 76.6 µM). For the same molecule, in series [10], the selectivity ratio was determined as 6. Moreover, in the series on Escherichia coli [11], the MRC is 4 µg/mL. Also, the MIC with Escherichia coli [7] was > 64 µg/mL.

`COc1ccccc1Nc1nc2nonc2nc1Nc1cccc(OC(F)(F)F)c1`: the MRC with Escherichia coli [11] was >64 µg/mL.

As to `Cc1cccc(Nc2nc3nonc3nc2O)c1`, the MRC with Escherichia coli [11] came out at 8 µg/mL.

For `FC(F)(F)Oc1cccc(Nc2nc3nonc3nc2Nc2cccc(OC(F)(F)F)c2)c1`, the GI50 in [9] came to 4.3 µg/mL (≈ 9.1 µM). Further, the selectivity ratio in series [10] came to 17. For the same molecule, in the series with Escherichia coli [11], the MRC turned out to be 0.25 µg/mL. In addition, the MIC with Escherichia coli [7] is > 64 µg/mL.

As for `Clc1ccccc1Nc1nc2nonc2nc1Nc1ccccc1Cl`, the MRC with Escherichia coli [11] was 8 µg/mL.

As for `c1ccc(Nc2nc3nonc3nc2Nc2ccccc2)cc1`, in [9], the GI50 came to 4.4 µg/mL (≈ 14.5 µM). Moreover, in series [10], the selectivity ratio was 8.8. The MRC in the series with Escherichia coli [11] worked out at 0.5 µg/mL. Moreover, the MIC with Escherichia coli [7] was > 64 µg/mL.

With `Oc1nc2nonc2nc1Nc1ccccc1`, in the series on Escherichia coli [11], the MRC was >64 µg/mL.

In the case of `Cc1ccc(Nc2nc3nonc3nc2Nc2ccc(C)cc2)cc1`, the GI50 in [9] is 11 µg/mL (≈ 33.1 µM). Further, the selectivity ratio in [10] worked out at 22. In addition, the MRC with Escherichia coli [11] stood at 0.5 µg/mL. For the same molecule, the MIC in the series with Escherichia coli [7] is > 64 µg/mL.

Turning to `Cc1ccc(Nc2nc3nonc3nc2O)cc1`, the MRC with Escherichia coli [11] was 64 µg/mL.

Regarding `Oc1nc2nonc2nc1Nc1ccccc1Cl`, the MRC with Escherichia coli [11] stood at 16 µg/mL.

Consider `Cc1cccc(Nc2nc3nonc3nc2Nc2cccc(OC(F)(F)F)c2)c1`, for which the GI50 in series [9] is 12 µg/mL (≈ 29.8 µM). In [10], the selectivity ratio worked out at 24. The MRC in the series with Escherichia coli [11] amounted to 0.5 µg/mL. For the same molecule, the MIC with Escherichia coli [7] was > 64 µg/mL.

As to `COc1cccc(Nc2nc3nonc3nc2Nc2cccc(OC)c2)c1`, in the series with Escherichia coli [11], the MRC amounted to 2 µg/mL.

For the molecule `Clc1ccc(Nc2nc3nonc3nc2Nc2ccc(Cl)cc2)cc1`, the MIC with Pseudomonas aeruginosa [12] worked out at 2 µg/mL; with Acinetobacter baumannii [13] it was 0.25 µg/mL; in the series on Klebsiella pneumoniae [14], 1 µg/mL; in the series with Escherichia coli [15], 1 µg/mL; in the series on Salmonella typhimurium [16] it was 2 µg/mL; in the series on Salmonella typhimurium [17], 1 µg/mL. Also, the values for the MIC in the series with Escherichia coli [18], in the series with Pseudomonas aeruginosa [19] and with Escherichia coli [7] were 2 µg/mL, 1 µg/mL and > 64 µg/mL, respectively. In [9], the GI50 turned out to be 28 µg/mL (≈ 75 µM). For the same molecule, the selectivity ratio in [10] came to 56. The MRC with Escherichia coli [11] was found to be 0.5 µg/mL.

With `COc1ccc(Nc2nc3nonc3nc2Nc2ccc(OC)cc2)cc1`, the MRC in the series with Escherichia coli [11] is >64 µg/mL.

With `Oc1nc2nonc2nc1Nc1ccccc1F`, the MRC in the series on Escherichia coli [11] was determined as 64 µg/mL.

Turning to `FC(F)(F)Oc1ccc(Nc2nc3nonc3nc2Nc2ccc(OC(F)(F)F)cc2)cc1`, in series [9], the GI50 was determined as 5.7 µg/mL (≈ 12.1 µM). Also, the selectivity ratio in series [10] worked out at 23. In addition, in the series on Escherichia coli [11], the MRC was 0.25 µg/mL. For the same molecule, the MIC in the series on Escherichia coli [7] is > 64 µg/mL.

In the case of `Oc1nc2nonc2nc1Nc1ccc(OC(F)(F)F)cc1`, in the series with Escherichia coli [11], the MRC was determined as 16 µg/mL.

As to `Fc1cccc(Nc2nc3nonc3nc2Nc2cccc(F)c2)c1`, the GI50 in [9] was 20 µg/mL (≈ 58.8 µM). In addition, in series [10], the selectivity ratio was found to be 40. For the same molecule, the MRC in the series with Escherichia coli [11] worked out at 0.5 µg/mL. In the series with Escherichia coli [7], the MIC was > 64 µg/mL.

For `Clc1cccc(Nc2nc3nonc3nc2Nc2cccc(Cl)c2)c1`, the MIC in the series on Pseudomonas aeruginosa [12] is 2 µg/mL; in the series on Acinetobacter baumannii [13], 0.25 µg/mL; in the series on Klebsiella pneumoniae [14], 1 µg/mL; with Escherichia coli [15], 1 µg/mL; with Salmonella typhimurium [16], 1 µg/mL; with Salmonella typhimurium [17], 1 µg/mL. Further, the MIC was 1 µg/mL in the series on Escherichia coli [18], 1 µg/mL in the series on Pseudomonas aeruginosa [19] and > 64 µg/mL in the series with Escherichia coli [7]. In [9], the GI50 is 11 µg/mL (≈ 29.5 µM). Also, in series [10], the selectivity ratio was found to be 44.

On to `Fc1ccc(Nc2nc3nonc3nc2Nc2ccc(F)cc2)cc1`, for which the GI50 in series [9] amounted to 9.4 µg/mL (≈ 27.6 µM). Further, in series [10], the selectivity ratio came to 19. Besides, the MRC with Escherichia coli [11] was 0.5 µg/mL. In addition, in the series with Escherichia coli [7], the MIC was > 64 µg/mL.

Turning to `Oc1nc2nonc2nc1Nc1cccc(F)c1`, the MRC in the series on Escherichia coli [11] is 64 µg/mL.

In the case of `COc1ccc(Nc2nc3nonc3nc2O)cc1`, the MRC in the series on Escherichia coli [11] was >64 µg/mL.

With `COc1ccccc1Nc1nc2nonc2nc1O`, the GI50 in series [9] was > 100 µg/mL. In addition, the selectivity ratio in [10] was > 25. The MRC in the series on Escherichia coli [11] is 4 µg/mL. Further, the MIC in the series with Escherichia coli [7] is > 64 µg/mL.

As to `Oc1nc2nonc2nc1Nc1ccccc1OC(F)(F)F`, in the series on Escherichia coli [11], the MRC was >64 µg/mL.

On to `COc1cccc(Nc2nc3nonc3nc2O)c1`, for which the MRC in the series on Escherichia coli [11] came to 16 µg/mL.

For `Oc1nc2nonc2nc1Nc1ccc(F)cc1`, in the series with Escherichia coli [11], the MRC came to 32 µg/mL.

As to `O=c1[nH]c2nonc2nc1Nc1cccc(Cl)c1`, in the series with Escherichia coli [11], the MRC worked out at 16 µg/mL.

For the molecule `Oc1nc2nonc2nc1Nc1ccc(Cl)cc1`, the MRC in the series with Escherichia coli [11] is 32 µg/mL.

As for `FC(F)(F)Oc1ccccc1Nc1nc2nonc2nc1Nc1ccccc1OC(F)(F)F`, the MRC in the series on Escherichia coli [11] was >64 µg/mL.
